Patent US20170001990A1 (Genentech, Inc., priority 2014, published 2017)

Biological target: Human recombinant carboxy-terminal his-tagged LDHA (amino acids 2-332) (Homo sapiens, UniProt P00338)
Assay: LDHA enzyme inhibition assay (NADH fluorescence)
Details: LDHA IC50 (μM), 1 nM LDHA, NADH and pyruvate, stereochemistry of tested sample given

Compound	IC50 [µM]
O=C1CC(c2ccsc2)(c2cccc(Cc3ccc(F)c(F)c3)n2)NC(=O)C1Sc1ccccc1Cl (single isomer, unassigned) [Example 256, 3-((2-chlorophenyl)thio)-6-(6-(3,4-difluorobenzyl)pyridin-2-yl)-6-(thiophen-3-yl)piperidine-2,4-dione]	0.062
O=C1CC(c2ccsc2)(c2cccc(NCCC3CCCCC3)n2)NC(=O)C1Sc1ccccc1Cl (stereo not drawn) [Example 220, 3-(2-chlorophenyl)sulfanyl-6-[6-(2-cyclohexyl-ethylamino)-2-pyridyl]-6-(3-thienyl)piperidine-2,4-dione]	0.162
COCCCOc1cccc(C2(c3ccsc3)CC(=O)C(Sc3ccccc3Cl)C(=O)N2)n1 (single isomer, unassigned) [Example 228, 3-(2-chlorophenyl)sulfanyl-6-[6-(3-methoxypropoxy)-2-pyridyl]-6-(3-thienyl) piperidine-2,4-dione]	0.419
O=C1CC(c2ccsc2)(c2cccc(OCC3CCC(CO)CC3)n2)NC(=O)C1Sc1ccccc1Cl (single isomer, unassigned) [Example 233, 3-((2-chlorophenyl)thio)-6-(6-((4-(hydroxymethyl)cyclohexyl)methoxy)pyridin-2-yl)-6-(thiophen-3-yl)piperidine-2,4-dione]	0.017
O=C1CC(c2ccsc2)(c2cccc(OCC3CCOCC3)n2)NC(=O)C1Sc1ccccc1Cl (single isomer, unassigned) [Example 209, 3-(2-chlorophenyl)sulfanyl-6-[6-(tetrahydropyran-4-ylmethoxy)-2-pyridyl]-6-(3-thienyl)piperidine-2,4-dione]	0.006
COc1cc(F)cc(Cc2cccc(C3(c4ccsc4)CC(=O)C(Sc4ccccc4Cl)C(=O)N3)n2)c1 (single isomer, unassigned) [Example 156, 3-(2-chlorophenyl)sulfanyl-6-[6-[(3-fluoro-5-methoxy-phenyl)methyl]-2-pyridyl]-6-(3-thienyl) piperidine-2,4-dione]	0.072
O=C1CC(c2ccsc2)(c2cccc(Oc3ccc(F)c(Br)c3)n2)NC(=O)C1Sc1ccccc1Cl (single isomer, unassigned) [Example 149, 6-[6-(3-bromo-4-fluoro-phenoxy)-2-pyridyl]-3-(2-chlorophenyl)sulfanyl-6-(3-thienyl)piperidine-2,4-dione]	0.069
O=C1CC(c2ccsc2)(c2cccc(Oc3cccc(F)c3)n2)NC(=O)C1Sc1ccccc1Cl (single isomer, unassigned) [Example 79, 3-(2-chlorophenyl)sulfanyl-6-[6-(3-fluorophenoxy)-2-pyridyl]-6-(3-thienyl) piperidine-2,4-dione]	0.199
O=C1CC(c2ccsc2)(c2cccc(OCCC3CCCC3)n2)NC(=O)C1Sc1ccccc1Cl (single isomer, unassigned) [Example 113, 3-((2-chlorophenyl)thio)-6-(6-(2-cyclopentyl-ethoxy)pyridin-2-yl)-6-(thiophen-3-yl)piperidine-2,4-dione]	0.014
O=C1CC(c2ccsc2)(c2cccc(Cc3ccccc3)n2)NC(=O)C1Sc1ccccc1Cl (single isomer, unassigned) [Example 118, 6-(6-benzylpyridin-2-yl)-3-((2-chloropnenyl)thio)-6-(thiophen-3-yl) piperidine-2,4-dione]	0.622
O=C(NCC1CC1)c1cccc(C2(c3ccsc3)CC(=O)C(Sc3ccccc3Cl)C(=O)N2)n1 (stereo not drawn) [Example 242, 6-[5-(2-chlorophenyl)sulfanyl-4,6-dioxo-2-(3-thienyl)-2-piperidyl]-N-(cyclopropylmethyl) pyridine-2-carboxamide]	0.004
O=C1CC(c2ccsc2)(c2cccc(OCCCC(F)(F)F)n2)NC(=O)C1Sc1ccccc1Cl (single isomer, unassigned) [Example 121, 3-(2-chlorophenyl)sulfanyl-6-(3-thienyl)-6-[6-(4,4,4-trifluorobutoxy)-2-pyridyl]piperidine-2,4-dione]	0.008
CN1C(=O)C(Sc2ccccc2Cl)C(=O)CC1(c1ccsc1)c1cccc(Oc2ccc(F)cc2)n1 (stereo not drawn) [Example 12, 3-(2-chlorophenyl)sulfanyl-6-[6-(4-fluorophenoxy)-2-pyridyl]-1-methyl-6-(3-thienyl)piperidine-2,4-dione]	0.027
O=C1CC(c2ccsc2)(c2cccc(Sc3ccc(F)cc3)n2)NC(=O)C1Sc1ccccc1Cl (single isomer, unassigned) [Example 198, 3-(2-chlorophenyl)sulfanyl-6-[6-(4-fluorophenyl)sulfanyl-2-pyridyl]-6-(3-thienyl)piperidine-2,4-dione]	0.177
O=C1CC(c2ccsc2)(c2cccc(NCCC3CC3)n2)NC(=O)C1Sc1ccccc1Cl (stereo not drawn) [Example 131, 3-(2-chlorophenyl)sulfanyl-6-[6-(2-cyclopropyl-ethylamino)-2-pyridyl]-6-(3-thienyl)piperidine-2,4-dione]	0.046
O=C1CC(c2ccsc2)(c2cccc(Oc3cccc4cccnc34)n2)NC(=O)C1Sc1ccccc1Cl (stereo not drawn) [Example 100, 3-((2-chlorophenyl)thio)-6-(6-(quinolin-8-yloxy)pyridin-2-yl)-6-(thiophen-3-yl)piperidine-2,4-dione]	0.046
O=C1CC(c2ccsc2)(c2cccc(OCC(F)F)n2)NC(=O)C1Sc1ccccc1Cl (single isomer, unassigned) [Example 223, 3-(2-chlorophenyl)sulfanyl-6-[6-(2,2-difluoroethoxy)-2-pyridyl]-6-(3-thienyl) piperidine-2,4-dione]	0.057
CC(C)Oc1cccc(C2(c3ccsc3)CC(=O)C(Sc3ccccc3Cl)C(=O)N2)n1 (stereo not drawn) [Example 2, 3-(2-chlorophenyl)sulfanyl-6-(6-isopropoxy-2-pyridyl)-6-(3-thienyl)piperidine-2,4-dione]	0.082
O=C1CC(c2ccsc2)(c2cccc(Oc3ccc(F)c(F)c3)n2)NC(=O)C1Sc1ccccc1Cl (single isomer, unassigned) [Example 78, 3-(2-chlorophenyl)sulfanyl-6-[6-(3,4-difluoro-phenoxy)-2-pyridyl]-6-(3-thienyl)piperidine-2,4-dione]	0.023
O=C1CC(c2ccsc2)(c2cccc(Oc3cccc(C(F)(F)F)c3)n2)NC(=O)C1Sc1ccccc1Cl (stereo not drawn) [Example 169, 3-(2-chlorophenyl)sulfanyl-6-(3-thienyl)-6-[6-[3-(trifluoromethyl)phenoxy]-2-pyridyl]piperidine-2,4-dione]	0.01
O=C1CC(c2ccsc2)(c2cccc(OCC3CCCC3)n2)NC(=O)C1Sc1ccccc1Cl (single isomer, unassigned) [Example 194, 3-(2-chlorophenyl)sulfanyl-6-[6-(cyclopentyl-methoxy)-2-pyridyl]-6-(3-thienyl)piperidine-2,4-dione]	0.005
O=C1CC(c2ccsc2)(c2cccc(N3CC(C4CCOCC4)C3)n2)NC(=O)C1Sc1ccccc1Cl (stereo not drawn) [Example 162, 3-(2-chlorophenyl)sulfanyl-6-[6-(3-tetrahydropyran-4-ylazetidin-1-yl)-2-pyridyl]-6-(3-thienyl) piperidine-2,4-dione]	0.004

The next lines start with the values.

IC50 [µM]	Compound
0.189	O=C1CC(c2ccsc2)(c2cccc(Cc3ccc(F)c(F)c3)n2)NC(=O)C1Sc1ccccc1Cl (single isomer, unassigned) [Example 281, 3-((2-chlorophenyl)thio)-6-(6-(3,4-difluorobenzyl)pyridin-2-yl)-6-(thiophen-3-yl)piperidine-2,4-dione]
0.025	CCC(Oc1cccc(C2(c3ccsc3)CC(=O)C(Sc3ccccc3Cl)C(=O)N2)n1)c1ccc(F)cc1 (stereo not drawn) [Example 305]
0.157	COc1cccc(N(C)c2cccc(C3(c4ccsc4)CC(=O)C(Sc4ccccc4Cl)C(=O)N3)n2)c1 (stereo not drawn) [Example 274, 3-((2-chlorophenyl)thio)-6-(6-((3-methoxyphenyl) (methyl)amino)pyridin-2-yl)-6-(thiophen-3-yl) piperidine-2,4-dione]
1.64	O=C1CC(c2ccsc2)(c2cccc(CC3CCOCC3)n2)NC(=O)C1Sc1ccccc1Cl (stereo not drawn) [Example 267, 3-((2-chlorophenyl)thio)-6-(6-((tetrahydro-2H-pyran-4-yl)methyl)pyridin-2-yl)-6-(thiophen-3-yl) piperidine-2,4-dione]
0.092	CC(Oc1cccc(C2(c3ccsc3)CC(=O)C(Sc3ccccc3Cl)C(=O)N2)n1)c1ccc(F)cc1 (stereo not drawn) [Example 301]
0.141	Cc1cnc(Nc2cccc(C3(c4ccsc4)CC(=O)C(Sc4ccccc4Cl)C(=O)N3)n2)s1 (stereo not drawn) [Example 288, 3-((2-chlorophenyl)thio)-6-(6-((5-methylthiazol-2-yl)amino)pyridin-2-yl)-6-(thiophen-3-yl)piperidine-2,4-dione]
0.011	COc1cc(Cc2cccc(C3(c4ccsc4)CC(=O)C(Sc4ccccc4Cl)C(=O)N3)n2)ccc1F (stereo not drawn) [Example 259, 3-((2-chlorophenyl)thio)-6-(6-(4-fluoro-3-methoxy-benzyl)pyridin-2-yl)-6-(thiophen-3-yl)piperidine-2,4-dione]
0.408	CN(c1cccc(CO)c1)c1cccc(C2(c3ccsc3)CC(=O)C(Sc3ccccc3Cl)C(=O)N2)n1 (stereo not drawn) [Example 309, 3-((2-chlorophenyl)thio)-6-(6-((3-(hydroxymethyl)phenyl)(methyl)amino)pyridin-2-yl)-6-(thiophen-3-yl)piperidine-2,4-dione]
0.063	O=C1CC(c2ccsc2)(c2cccc(OCc3ccc(F)cc3)n2)NC(=O)C1Sc1ccccc1Cl (single isomer, unassigned) [Example 298, 3-((2-chlorophenyl)thio)-6-(6-((4-fluorobenzyl)oxy)pyridin-2-yl)-6-(thiophen-3-yl)piperidine-2,4-dione]
0.01	O=C1C[C@](c2ccc(N3CCOCC3)cc2)(c2cccc(Oc3ccc(F)c(F)c3)n2)NC(=O)C1Sc1ccccc1Cl (stereo partly drawn) [Example 318, (6S)-3-(2-chlorophenyl) sulfanyl-6-[6-(3,4-difluoro-phenoxy)-2-pyridyl]-6-(4-morpholinophenyl) piperidine-2,4-dione]
0.337	Cn1ccnc1Nc1cccc(C2(c3ccsc3)CC(=O)C(Sc3ccccc3Cl)C(=O)N2)n1 (stereo not drawn) [Example 277, 3-((2-chlorophenyl)thio)-6-(6-((1-methyl-1H-imidazol-2-yl)amino)pyridin-2-yl)-6-(thiophen-3-yl)piperidine-2,4-dione]
